Results as given in ChEMBL document CHEMBL3621042, “Design, synthesis of novel tryptophan derivatives for antiplatelet aggregation activity based on tripeptide pENW (pGlu-Asn-Trp)” (Eur J Med Chem, 2015).
Active and inactive are the calls of the source. The calls are words filed in the database; no cut-off is given here. Square brackets hold non-standard residues; d marks the D form. Peptide text beside a SMILES is read from it. pGlu = O=C1CC[C@@H](C(=O)O)N1

Experiments:
[1] = target: T1, Integrin alpha-IIb/beta-3 (Oryctolagus cuniculus) (UniProt Q9TUN4+Q9TUN3); test: Antagonist activity at GP2b/3a receptor in New Zealand rabbit platelet-rich plasma assessed as inhibition of ADP-induced platelet aggregation at 500 uM preincubated for 1 min followed by addition of ADP by aggregometer
[2] = target: T1, Integrin alpha-IIb/beta-3 (Oryctolagus cuniculus); test: Antagonist activity at GP2b/3a receptor in New Zealand rabbit platelet-rich plasma assessed as inhibition of ADP-induced platelet aggregation at 100 uM preincubated for 1 min followed by addition of ADP by aggregometer
[3] = test system: Rattus norvegicus; test: Antithrombotic activity in Sprague-Dawley rat arteriovenous shunt thrombosis model assessed as wet/dry weight reduction of thrombus at 1 mg/kg, iv incubated for 30 mins prior to testing; format: functional
[4] = test system: Mus musculus; test: Toxicity in ICR mouse assessed as bleeding time at 1 mg/kg incubated for 30 mins prior to testing by tail transection method; format: organism-based; details: in vivo, 0.5 h
[5] = target: T1, Integrin alpha-IIb/beta-3 (Oryctolagus cuniculus); details: New Zealand, Plasma, 1 to 1000 uM
Description: Antagonist activity at GP2b/3a receptor in New Zealand rabbit platelet-rich plasma assessed as inhibition of ADP-induced platelet aggregation at 1 to 1000 uM preincubated for 1 min followed by addition of ADP by aggregometer

[6] = target: Integrin alpha-IIb/beta-3 (Homo sapiens, UniProt P05106+P08514); test: Antagonist activity at GP2b/3a receptor (unknown origin) assessed as inhibition of interaction with fibrinogen after 2 hrs by ELISA; format: protein-complex assay
[7] = test system: Rattus norvegicus; test: Antithrombotic activity in iv dosed Sprague-Dawley rat arteriovenous shunt thrombosis model assessed as wet/dry weight reduction of thrombus incubated for 30 mins prior to testing; format: functional, organism-based
[8] = test system: Mus musculus; test: Toxicity in ICR mouse assessed as bleeding time at 3 mg/kg incubated for 30 mins prior to testing by tail transection method; format: organism-based; details: in vivo, 0.5 h
[9] = test system: Mus musculus; test: Toxicity in ICR mouse assessed as bleeding time at 0.3 mg/kg incubated for 30 mins prior to testing by tail transection method; format: organism-based; details: in vivo, 0.5 h
[10] = test system: Rattus norvegicus; test: Antithrombotic activity in Sprague-Dawley rat arteriovenous shunt thrombosis model assessed as wet/dry weight reduction of thrombus at 3 mg/kg, iv incubated for 30 mins prior to testing; format: functional; design: scale not given: the % may be the effect or the level left

Integrin alpha-IIb/beta-3, sequence (P05106 27-788 limits assumed): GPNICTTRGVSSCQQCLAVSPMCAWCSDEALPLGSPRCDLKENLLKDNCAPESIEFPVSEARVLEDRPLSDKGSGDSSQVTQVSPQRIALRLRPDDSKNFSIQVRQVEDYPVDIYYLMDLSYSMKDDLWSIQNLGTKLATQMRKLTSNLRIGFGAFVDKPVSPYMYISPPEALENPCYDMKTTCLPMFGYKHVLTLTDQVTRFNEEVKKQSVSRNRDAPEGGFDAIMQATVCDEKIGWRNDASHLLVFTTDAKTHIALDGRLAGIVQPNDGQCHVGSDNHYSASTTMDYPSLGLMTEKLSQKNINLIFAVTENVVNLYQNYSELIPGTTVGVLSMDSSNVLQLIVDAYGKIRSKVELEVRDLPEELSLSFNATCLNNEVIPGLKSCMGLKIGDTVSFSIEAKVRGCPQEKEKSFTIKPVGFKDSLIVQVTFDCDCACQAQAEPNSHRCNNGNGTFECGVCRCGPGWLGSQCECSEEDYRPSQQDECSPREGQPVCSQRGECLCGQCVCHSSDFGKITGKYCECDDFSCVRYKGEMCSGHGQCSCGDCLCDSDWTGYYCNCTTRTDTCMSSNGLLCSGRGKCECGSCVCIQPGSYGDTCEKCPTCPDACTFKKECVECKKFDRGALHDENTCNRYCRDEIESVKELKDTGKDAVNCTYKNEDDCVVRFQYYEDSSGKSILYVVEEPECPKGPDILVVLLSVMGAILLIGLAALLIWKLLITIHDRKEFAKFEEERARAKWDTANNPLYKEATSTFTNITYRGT
Integrin alpha-IIb/beta-3, sequence (P08514 32-887 limits assumed): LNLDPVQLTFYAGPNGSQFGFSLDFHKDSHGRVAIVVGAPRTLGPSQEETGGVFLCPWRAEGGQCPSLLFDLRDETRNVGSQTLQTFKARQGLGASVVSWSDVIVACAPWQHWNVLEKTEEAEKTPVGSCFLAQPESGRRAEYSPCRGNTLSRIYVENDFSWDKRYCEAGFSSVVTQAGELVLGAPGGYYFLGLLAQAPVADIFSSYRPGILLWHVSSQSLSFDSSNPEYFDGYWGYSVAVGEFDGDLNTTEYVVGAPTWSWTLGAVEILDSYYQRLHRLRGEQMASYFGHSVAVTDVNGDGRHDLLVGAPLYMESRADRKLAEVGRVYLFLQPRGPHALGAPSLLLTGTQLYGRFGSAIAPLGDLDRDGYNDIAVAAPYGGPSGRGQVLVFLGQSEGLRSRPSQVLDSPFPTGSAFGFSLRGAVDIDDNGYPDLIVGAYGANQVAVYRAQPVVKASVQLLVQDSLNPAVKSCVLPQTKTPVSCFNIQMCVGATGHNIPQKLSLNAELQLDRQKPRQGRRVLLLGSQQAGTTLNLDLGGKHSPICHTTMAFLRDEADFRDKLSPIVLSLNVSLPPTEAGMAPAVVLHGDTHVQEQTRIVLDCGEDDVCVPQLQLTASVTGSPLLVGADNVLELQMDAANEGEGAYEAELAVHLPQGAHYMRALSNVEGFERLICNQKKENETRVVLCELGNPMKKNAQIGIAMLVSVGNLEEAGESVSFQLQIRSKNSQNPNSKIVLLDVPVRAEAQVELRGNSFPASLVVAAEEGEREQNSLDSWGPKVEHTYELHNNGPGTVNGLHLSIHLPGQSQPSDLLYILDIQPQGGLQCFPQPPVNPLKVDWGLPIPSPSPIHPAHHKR
Integrin alpha-IIb/beta-3, sequence (P08514 891-1039 limits assumed): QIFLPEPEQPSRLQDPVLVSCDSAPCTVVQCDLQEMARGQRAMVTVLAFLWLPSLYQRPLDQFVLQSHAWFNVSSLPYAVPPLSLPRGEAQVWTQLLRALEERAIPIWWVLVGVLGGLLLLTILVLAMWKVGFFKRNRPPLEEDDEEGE

Compound: CC(=O)N[C@@H](CC(N)=O)C(=O)N[C@@H](Cc1c[nH]c2ccccc12)C(=O)O (Ac-Asn-Trp-OH)
- inhibition [1]: 35.2%

Compound: COc1ccc(C(=O)N[C@@H](Cc2c[nH]c3ccc(OCCCCC4CCNCC4)cc23)C(=O)O)cc1
- inhibition [2]: 38.3%

Compound: CCCC(=O)N[C@@H](Cc1c[nH]c2ccc(OCCCN3CCN(C)CC3)cc12)C(=O)O
- inhibition [1]: 13.5%

Compound: CCCCS(=O)(=O)N[C@@H](Cc1c[nH]c2ccc(OCCCC3CCNCC3)cc12)C(=O)O
- inhibition [1]: 73.3%

Compound: CCCC(=O)N[C@@H](Cc1c[nH]c2ccc(OCCC3CCNCC3)cc12)C(=O)O
- inhibition [1]: 29.5%

Compound: CCCC(=O)N[C@@H](Cc1c[nH]c2ccc(OCCCC3CCNCC3)cc12)C(=O)O
- inhibition [1]: 71.2%

Compound: CCCC(=O)N[C@@H](Cc1c[nH]c2ccc(OCCN3CCN(C)CC3)cc12)C(=O)O
- inhibition [1]: 12.4%

Compound: O=C(O)[C@H](Cc1c[nH]c2ccc(OCCCCC3CCNCC3)cc12)NS(=O)(=O)c1ccc([N+](=O)[O-])cc1
- inhibition [2]: 45.3%

Compound: CCCC(=O)N[C@@H](Cc1c[nH]c2ccc(OCCCN3CCNCC3)cc12)C(=O)O
- inhibition [1]: 84.3%

Compound: O=C(O)[C@H](Cc1c[nH]c2ccc(OCCCN3CCNCC3)cc12)NS(=O)(=O)c1ccccc1
- inhibition [1]: 55.3%

Compound: O=C(O)[C@H](Cc1c[nH]c2ccc(OCCCCC3CCNCC3)cc12)NS(=O)(=O)c1ccccc1
- inhibition [1]: 99.2%
- inhibition [2]: 53.8%

Compound: COc1ccc(S(=O)(=O)N[C@@H](Cc2c[nH]c3ccc(OCCCCC4CCNCC4)cc23)C(=O)O)cc1
- inhibition [2]: 39.3%

Compound: O=C(N[C@@H](Cc1c[nH]c2ccc(OCCCCC3CCNCC3)cc12)C(=O)O)c1ccc([N+](=O)[O-])cc1
- inhibition [2]: 43.5%

Compound: CCCC(=O)N[C@@H](Cc1c[nH]c2ccc(OCCCCC3CCNCC3)cc12)C(=O)O
- inhibition [1]: 53.3%

Compound: CCCCS(=O)(=O)N[C@@H](Cc1c[nH]c2ccc(OCCCN3CCNCC3)cc12)C(=O)O
- inhibition [1]: 88.9%

Compound: O=C(O)[C@H](Cc1c[nH]c2ccc(OCCCCC3CCNCC3)cc12)NS(=O)(=O)c1ccc(F)cc1
- inhibition [2]: 57.1%

Compound: CCCCS(=O)(=O)N[C@@H](Cc1ccc(OCCCCC2CCNCC2)cc1)C(=O)O [TIROFIBAN]
- Activity [3]: Active
- Time [4]: 17 min
- inhibition [5]: Active

Compound: O=C(N[C@@H](Cc1c[nH]c2ccc(OCCCCC3CCNCC3)cc12)C(=O)O)c1cc(Cl)cc(Cl)c1
- inhibition [2]: 62.7%

Compound: Cc1ccc(S(=O)(=O)N[C@@H](Cc2c[nH]c3ccc(OCCCCC4CCNCC4)cc23)C(=O)O)cc1
- inhibition [2]: 43.1%

Compound: CCCC(=O)N[C@@H](Cc1c[nH]c2ccc(OCCN3CCNCC3)cc12)C(=O)O
- inhibition [1]: 58.3%

Compound: O=C(N[C@@H](Cc1c[nH]c2ccc(OCCCCC3CCNCC3)cc12)C(=O)O)c1ccccc1
- inhibition [1]: 96.2%
- inhibition [2]: 27.9%

Compound: O=C(N[C@@H](Cc1c[nH]c2ccc(OCCCCN3CCNCC3)cc12)C(=O)O)c1ccccc1
- inhibition [1]: 83.3%

Compound: O=C(N[C@@H](Cc1c[nH]c2ccc(OCCCC3CCNCC3)cc12)C(=O)O)c1ccccc1
- inhibition [1]: 92.7%

Compound: O=C(N[C@@H](Cc1c[nH]c2ccc(OCCCN3CCNCC3)cc12)C(=O)O)c1ccccc1
- inhibition [1]: 82.4%

Compound: NC(=O)C[C@H](NC(=O)[C@@H]1CCC(=O)N1)C(=O)N[C@@H](Cc1c[nH]c2ccccc12)C(=O)O ([pGlu]-Asn-Trp-OH)
- Activity [3]: inactive
- inhibition [1]: 38.7%
- inhibition [2]: 21.4%
- IC50 [6]: 12.5 µM
- Activity [4]: Non-toxic

Compound: CCCCS(=O)(=O)N[C@@H](Cc1c[nH]c2ccc(OCCCCN3CCNCC3)cc12)C(=O)O
- inhibition [1]: 61.2%

Compound: O=C(N[C@@H](Cc1c[nH]c2ccc(OCCCCC3CCNCC3)cc12)C(=O)O)c1cccc(F)c1
- inhibition [2]: 53.4%

Compound: CC(=O)N[C@@H](CC(N)=O)C(=O)N[C@@H](Cc1c[nH]c2ccc(OCCCC3CCNCC3)cc12)C(=O)O
- inhibition [1]: 51.4%

Compound: O=C(N[C@@H](Cc1c[nH]c2ccc(OCCCCC3CCNCC3)cc12)C(=O)O)c1ccc(F)cc1
- inhibition [2]: 54.9%

Compound: CCCC(=O)N[C@@H](Cc1c[nH]c2ccc(OCCCCN3CCNCC3)cc12)C(=O)O
- inhibition [1]: 79.1%

Compound: O=C(O)[C@H](Cc1c[nH]c2ccc(OCCCCN3CCNCC3)cc12)NS(=O)(=O)c1ccccc1
- inhibition [1]: 57.5%

Compound: O=C(O)[C@H](Cc1c[nH]c2ccc(OCCCCC3CCNCC3)cc12)NS(=O)(=O)c1ccc(Br)cc1
- Activity [3]: 26.6%
- Activity [7]: Dose-dependent effect
- inhibition [2]: 81.2%
- Time [8]: 13.5 min
- Time [9]: 10.6 min
- Time [4]: 11.8 min
- Activity [10]: 41.7%

Compound: O=C(O)[C@H](Cc1c[nH]c2ccc(OCCCC3CCNCC3)cc12)NS(=O)(=O)c1ccccc1
- inhibition [1]: 94.5%

Compound: CCCCS(=O)(=O)N[C@@H](Cc1c[nH]c2ccc(OCCCCC3CCNCC3)cc12)C(=O)O
- inhibition [1]: 52.4%
